Source: publication PMC10185354, “MyosinA is a druggable target in the widespread protozoan parasite Toxoplasma gondii” (PLOS Biology, 2023)

Experiments:
TgMyoA (myosinA) [1] = biological target: T1, TgMyoA (myosinA) (Toxoplasma gondii, UniProt O00934); test: actin-activated ATPase (ADP-Glo) at […] compound; type: biochemical
T1 construct: recombinant TgMyoA heavy chain co-expressed with TgMLC1 and TgELC1 in Sf9 cells; with TgMLC1, TgELC1

TgMyoA (myosinA) [2] = biological target: T1, TgMyoA (myosinA); test: actin-activated ATPase (ADP-Glo) at […] compound; partial inhibition; type: biochemical

Structure (SMILES) | actin-activated ATPase (ADP-Glo) at 20 μM compound (TgMyoA (myosinA) [1]) | actin-activated ATPase (ADP-Glo) at 20 μM compound; partial inhibition (TgMyoA (myosinA) [2])
Clc1ccc(C2(NCc3c[nH]nc3-c3cccs3)CC2)cc1 [VEST2] | inhibition of both in vitro ATPase activity and parasite growth were retained when the p-OMe substituent in KNX-002 was replaced | 
Clc1ccc(C2(NCc3c[nH]nc3-c3cccs3)CC2)cc1Cl [VEST4] |  | partially retained in analogs containing p-Me (VEST3) or m,p-dichloro (VEST4) substituents
Cc1ccc(C2(NCc3c[nH]nc3-c3cccs3)CC2)cc1 [VEST3] |  | partially retained in analogs containing p-Me (VEST3) or m,p-dichloro (VEST4) substituents
